Measured values from ChEMBL document CHEMBL1148604 (J Med Chem, 2006).
Values after ≈ are worked out from the molar mass of the structure shown. Active and inactive are the calls of the source. No cut-off for these calls is given here.

Columns and labels:
[1] = biological target: wild-type apo-KasA (Mycobacterium tuberculosis, UniProt P9WQD9); experiment: Inhibitory activity against KasA from Mycobacterium tuberculosis H37Rv
[2] = tested on: Escherichia coli; experiment: Inhibitory activity against Escherichia coli ANSI; type: functional
[3] = biological target: T1, 3-oxoacyl-[acyl-carrier-protein] synthase 1 (Escherichia coli K-12, UniProt P0A953); experiment: Inhibitory activity against FabB from Escherichia coli ANSI
T1 sequence (P0A953 whole entry): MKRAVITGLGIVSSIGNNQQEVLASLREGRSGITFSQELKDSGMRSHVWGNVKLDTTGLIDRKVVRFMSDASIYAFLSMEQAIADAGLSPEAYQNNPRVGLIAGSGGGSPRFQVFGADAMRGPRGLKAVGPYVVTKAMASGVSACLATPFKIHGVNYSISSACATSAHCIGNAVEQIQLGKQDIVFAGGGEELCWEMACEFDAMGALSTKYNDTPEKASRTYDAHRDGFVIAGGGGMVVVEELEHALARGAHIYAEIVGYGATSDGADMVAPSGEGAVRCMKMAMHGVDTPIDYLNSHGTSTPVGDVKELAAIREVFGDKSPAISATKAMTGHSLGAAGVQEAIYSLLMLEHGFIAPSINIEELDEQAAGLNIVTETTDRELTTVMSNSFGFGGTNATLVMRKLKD

[4] = biological target: T2, 3-oxoacyl-[acyl-carrier-protein] synthase 2 (Mycobacterium tuberculosis, UniProt P9WQD7); experiment: Inhibitory activity against KasB from Mycobacterium tuberculosis H37Rv
T2 sequence (P9WQD7 whole entry): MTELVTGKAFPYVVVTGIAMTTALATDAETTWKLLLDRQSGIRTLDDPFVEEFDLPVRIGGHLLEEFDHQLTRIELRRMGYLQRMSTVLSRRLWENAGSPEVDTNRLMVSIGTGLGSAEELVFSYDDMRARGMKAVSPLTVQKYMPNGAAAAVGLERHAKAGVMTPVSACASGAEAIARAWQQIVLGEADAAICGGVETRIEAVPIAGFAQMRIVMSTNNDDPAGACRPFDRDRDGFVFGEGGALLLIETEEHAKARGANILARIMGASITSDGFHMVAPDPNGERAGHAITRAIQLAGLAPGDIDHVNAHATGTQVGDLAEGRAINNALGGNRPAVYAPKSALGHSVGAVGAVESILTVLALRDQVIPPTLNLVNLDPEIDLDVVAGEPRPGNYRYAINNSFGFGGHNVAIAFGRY

[5] = biological target: T3, 3-oxoacyl-[acyl-carrier-protein] synthase 3 (Escherichia coli, UniProt C3TDZ2); experiment: Inhibitory activity against FabH from Escherichia coli ANSI
T3 sequence (C3TDZ2 whole entry): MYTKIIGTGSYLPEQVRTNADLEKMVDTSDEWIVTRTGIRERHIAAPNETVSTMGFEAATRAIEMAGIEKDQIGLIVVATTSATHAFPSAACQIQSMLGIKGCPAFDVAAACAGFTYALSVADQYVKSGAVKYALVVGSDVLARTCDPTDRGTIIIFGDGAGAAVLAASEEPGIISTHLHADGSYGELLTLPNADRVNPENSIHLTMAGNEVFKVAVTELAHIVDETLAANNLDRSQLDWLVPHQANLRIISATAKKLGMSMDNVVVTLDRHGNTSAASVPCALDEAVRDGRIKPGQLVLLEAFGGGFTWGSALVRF

[6] = tested on: Mycobacterium tuberculosis; experiment: Inhibitory activity against Mycobacterium tuberculosis H37Rv; type: functional
[7] = biological target: T4, Mycobacterial beta-ketoacyl-[acyl-carrier-protein] synthase III (Mycobacterium tuberculosis, UniProt P9WNG3); experiment: Inhibitory activity against FabH from Mycobacterium tuberculosis H37Rv
T4 sequence (P9WNG3 whole entry): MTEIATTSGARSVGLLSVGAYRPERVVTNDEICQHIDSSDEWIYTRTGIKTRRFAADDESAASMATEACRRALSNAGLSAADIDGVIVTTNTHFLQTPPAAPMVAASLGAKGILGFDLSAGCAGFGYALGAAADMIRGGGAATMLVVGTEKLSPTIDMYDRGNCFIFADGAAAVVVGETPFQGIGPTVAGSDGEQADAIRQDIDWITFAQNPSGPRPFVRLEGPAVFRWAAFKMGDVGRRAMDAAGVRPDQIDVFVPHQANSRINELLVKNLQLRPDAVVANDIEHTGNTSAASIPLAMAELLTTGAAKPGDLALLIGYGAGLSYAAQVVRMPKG

[8] = biological target: T5, 3-oxoacyl-[acyl-carrier-protein] synthase 1 (Mycobacterium tuberculosis) (UniProt P9WQD9); experiment: Inhibitory activity against KasA from Mycobacterium tuberculosis H37Rv at 100 uM
T5 sequence (whole entry): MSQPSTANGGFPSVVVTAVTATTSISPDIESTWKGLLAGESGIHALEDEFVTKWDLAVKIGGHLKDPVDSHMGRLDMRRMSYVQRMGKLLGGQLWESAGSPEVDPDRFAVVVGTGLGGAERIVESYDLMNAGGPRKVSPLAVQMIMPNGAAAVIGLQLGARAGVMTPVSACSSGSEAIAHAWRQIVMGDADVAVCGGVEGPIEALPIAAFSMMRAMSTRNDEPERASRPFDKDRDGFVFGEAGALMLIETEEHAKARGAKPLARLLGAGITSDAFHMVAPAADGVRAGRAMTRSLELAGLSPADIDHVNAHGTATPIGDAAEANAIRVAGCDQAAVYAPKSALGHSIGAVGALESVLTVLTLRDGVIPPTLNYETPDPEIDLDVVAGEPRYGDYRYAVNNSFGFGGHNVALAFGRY

[9] = biological target: T6, 3-oxoacyl-[acyl-carrier-protein] synthase 2 (Mycobacterium tuberculosis) (UniProt P9WQD7); experiment: Inhibitory activity against KasB from Mycobacterium tuberculosis H37Rv at 100 uM
T6 sequence (whole entry): T2 sequence (P9WQD7 whole entry)

[10] = biological target: T7, 3-oxoacyl-[acyl-carrier-protein] synthase 1 (Escherichia coli K-12) (UniProt P0A953); experiment: Inhibitory activity against FabB from Escherichia coli ANSI at 100 uM
T7 sequence (whole entry): T1 sequence (P0A953 whole entry)

Question: With `CCCCCCCCC(C)C1(C)SC(O)=C(C)C1=O` (centres undefined) as the compound, how does the IC50 [1] read?
Answer: > 1000 µM

Question: And the MIC [2]?
Answer: 35 µM (≈ 9.96 µg/mL)

Question: And the IC50 [3]?
Answer: > 1000 µM

Question: And the IC50 [4]?
Answer: > 1000 µM

Question: What about the IC50 [5] of the same compound?
Answer: > 1000 µM

Question: What about the MIC [6] of the same compound?
Answer: 1000 µM (≈ 284 µg/mL)

Question: And the IC50 [7]?
Answer: 75 µM

Question: With `CC1=C(O)C(C)(Cc2c(Cl)cccc2Cl)SC1=O` (centres undefined) as the compound, how does the IC50 [1] read?
Answer: > 1000 µM

Question: And the MIC [2]?
Answer: > 1000 µM

Question: And the IC50 [3]?
Answer: > 1000 µM

Question: And the IC50 [4]?
Answer: > 1000 µM

Question: And the IC50 [5]?
Answer: > 1000 µM

Question: And the MIC [6]?
Answer: 500 µM (≈ 152 µg/mL)

Question: And the IC50 [7]?
Answer: > 1000 µM

Question: Which IC50 [1] does the source give for `CC/C=C/CC1(C)SC(O)=C(C)C1=O` (centres undefined) here?
Answer: > 1000 µM

Question: And the MIC [2]?
Answer: > 1000 µM

Question: What about the IC50 [3] of the same compound?
Answer: > 1000 µM

Question: What about the IC50 [4] of the same compound?
Answer: > 1000 µM

Question: And the IC50 [5]?
Answer: > 1000 µM

Question: What about the MIC [6] of the same compound?
Answer: > 1000 µM

Question: And the IC50 [7]?
Answer: > 1000 µM

Question: Which results are given for `CCCCC(CC)CC1(C)SC(O)=C(C)C1=O` (centres undefined)?
Answer: IC50 [1]: > 1000 µM; MIC [2]: > 1000 µM; IC50 [3]: > 1000 µM; IC50 [4]: > 1000 µM; IC50 [5]: > 1000 µM; MIC [6]: 1000 µM (≈ 256 µg/mL); IC50 [7]: > 1000 µM

Question: What does the source list for `CC1=C(O)C(C)(CC2CCCCC2)SC1=O` (centres undefined)?
Answer: IC50 [1]: > 1000 µM; MIC [2]: > 1000 µM; IC50 [3]: > 1000 µM; IC50 [4]: > 1000 µM; IC50 [5]: > 1000 µM; MIC [6]: > 1000 µM; IC50 [7]: > 1000 µM

Question: With `CC1=C(O)C(C)(Cc2cc(C)ccc2C)SC1=O` (centres undefined) as the compound, how does the IC50 [1] read?
Answer: > 1000 µM

Question: What about the MIC [2] of the same compound?
Answer: > 1000 µM

Question: And the IC50 [3]?
Answer: > 1000 µM

Question: What about the IC50 [4] of the same compound?
Answer: > 1000 µM

Question: And the IC50 [5]?
Answer: > 1000 µM

Question: What about the MIC [6] of the same compound?
Answer: > 1000 µM

Question: And the IC50 [7]?
Answer: > 1000 µM

Question: What does the source list for `COc1cc(CC2(C)SC(O)=C(C)C2=O)cc(OC)c1` (centres undefined)?
Answer: IC50 [1]: > 1000 µM; MIC [2]: > 1000 µM; IC50 [3]: > 1000 µM; IC50 [4]: > 1000 µM; IC50 [5]: > 1000 µM; MIC [6]: > 1000 µM; IC50 [7]: > 1000 µM

Question: What does the source list for `CCCCCCCCCCCCCC1(C)SC(O)=C(C)C1=O` (centres undefined)?
Answer: inhibition [8]: inactive; MIC [2]: > 200 µM; inhibition [9]: inactive; IC50 [3]: > 100 µM; inhibition [10]: < 30%; IC50 [5]: 100 µM; MIC [6]: 500 µM (≈ 163 µg/mL); IC50 [7]: 80 µM

Question: `COc1ccccc1CC1(C)SC(O)=C(C)C1=O` (centres undefined) was tested. Which IC50 [1] did it give?
Answer: > 1000 µM

Question: And the MIC [2]?
Answer: > 1000 µM

Question: And the IC50 [3]?
Answer: > 1000 µM

Question: What about the IC50 [4] of the same compound?
Answer: > 1000 µM

Question: And the IC50 [5]?
Answer: > 1000 µM

Question: And the MIC [6]?
Answer: > 1000 µM

Question: And the IC50 [7]?
Answer: > 100 µM

Question: How did the IC50 [1] turn out when `COc1ccc(CC2(C)SC(O)=C(C)C2=O)cc1` (centres undefined) was run?
Answer: > 1000 µM

Question: What about the MIC [2] of the same compound?
Answer: > 1000 µM

Question: And the IC50 [3]?
Answer: > 1000 µM

Question: What about the IC50 [4] of the same compound?
Answer: > 1000 µM

Question: What about the IC50 [5] of the same compound?
Answer: > 1000 µM

Question: And the MIC [6]?
Answer: > 1000 µM

Question: What about the IC50 [7] of the same compound?
Answer: > 1000 µM

Question: How did the IC50 [1] turn out when `CC1=C(O)C(C)(Cc2ccc(F)cc2)SC1=O` (centres undefined) was run?
Answer: > 1000 µM

Question: What about the MIC [2] of the same compound?
Answer: > 1000 µM

Question: What about the IC50 [3] of the same compound?
Answer: > 1000 µM

Question: What about the IC50 [4] of the same compound?
Answer: > 1000 µM

Question: What about the IC50 [5] of the same compound?
Answer: > 1000 µM

Question: And the MIC [6]?
Answer: > 1000 µM

Question: And the IC50 [7]?
Answer: > 100 µM

Question: `COc1cccc(CC2(C)SC(O)=C(C)C2=O)c1` (centres undefined) was tested. Which IC50 [1] did it give?
Answer: > 1000 µM

Question: What about the MIC [2] of the same compound?
Answer: > 1000 µM

Question: What about the IC50 [3] of the same compound?
Answer: > 1000 µM

Question: And the IC50 [4]?
Answer: > 1000 µM

Question: And the IC50 [5]?
Answer: > 1000 µM

Question: What about the MIC [6] of the same compound?
Answer: > 1000 µM

Question: What about the IC50 [7] of the same compound?
Answer: > 1000 µM

Question: Which IC50 [1] does the source give for `C=CCCCCCCC1(C)SC(=O)C(C)=C1O` (centres undefined) here?
Answer: > 1000 µM

Question: And the MIC [2]?
Answer: 200 µM (≈ 50.9 µg/mL)

Question: And the IC50 [3]?
Answer: > 1000 µM

Question: And the IC50 [4]?
Answer: > 1000 µM

Question: And the IC50 [5]?
Answer: > 1000 µM

Question: What about the MIC [6] of the same compound?
Answer: 500 µM (≈ 127 µg/mL)

Question: What about the IC50 [7] of the same compound?
Answer: > 1000 µM

Question: With `CC1=C(O)SC(C)(CCC(C)C)C1=O` (centres undefined) as the compound, how does the IC50 [1] read?
Answer: > 1000 µM

Question: And the MIC [2]?
Answer: > 1000 µM

Question: And the IC50 [3]?
Answer: > 1000 µM

Question: And the IC50 [4]?
Answer: > 1000 µM

Question: What about the IC50 [5] of the same compound?
Answer: > 1000 µM

Question: And the MIC [6]?
Answer: > 1000 µM

Question: And the IC50 [7]?
Answer: > 1000 µM
